Results taken from PMC3348654 (The Journal of Neuroscience, 2012).

What was measured:
[1] = C and EC metabolite levels in rat brain tissue after 10 days repeated dosing; format: in vivo; conditions: rats, following repeated dosing with GP or with Mo
[2] = system: MEK1 (Ser222); assay: Multiplex phospho-MEK immunoassay in hippocampal slices; format: cell-based; conditions: 300 nM, 5 hours, hippocampal slices from old Tg2576 mice
[3] = system: PKA; assay: PKA activity assay and PKA IIa protein content in hippocampal slices; format: cell-based; conditions: 300 nM, 5 hours, hippocampal slices from old Tg2576 mice
[4] = system: Erk/MAP kinase 1/2 (Thr185/Tyr187); assay: Multiplex phospho-Erk1/2 immunoassay in hippocampal slices; format: cell-based; conditions: 300 nM, 5 hours, hippocampal slices from old Tg2576 mice
[5] = system: hippocampal slices from Tg2576 mice; assay: Electrophysiological recordings; format: cell-based; conditions: 300 nM, 4–5 h, hippocampal slices from old Tg2576 mice, versus vehicle
[6] = system: CaMKII; assay: Western blot of phospho- and total CaMKII in hippocampal slices; format: cell-based; conditions: 300 nM, 5 hours, hippocampal slices from old Tg2576 mice
[7] = system: brain slices from wild type mice; assay: Electrophysiological recordings in brain slices from age-matched wild type mice; format: cell-based; conditions: 300 nM
[8] = system: CREB (Ser133); assay: Phospho-CREB immunoassay in hippocampal slices; format: cell-based; conditions: 300 nM, 5 hours, hippocampal slices from old Tg2576 mice, versus vehicle

**Q.** Which “free C and EC contents in the brain” value [1] does the source give for Oc1cc(O)c2c(c1)OC(c1ccc(O)c(O)c1)C(O)C2 (single isomer, unassigned; (+)) [C, (+)-catechin] here?
**A.** trace contents (below levels for quantification)

**Q.** With COc1cc([C@H]2Oc3cc(O)cc(O[C@@H]4O[C@H](C(=O)O)[C@@H](O)[C@H](O)[C@H]4O)c3C[C@H]2O)ccc1O [3’-O-Me-EC-Gluc, 3’-O-methyl-epicatechin-5-O-β-glucuronide] as the compound, how does the “phosphorylation status of MEK” value [2] read?
**A.** did not modulate

**Q.** What about the “PKA (PKA activity assay and PKA IIa protein content)” value [3] of the same compound?
**A.** nor did it affect

**Q.** And the “phosphorylation status of Erk1/2 (Thr185/Tyr187)” value [4]?
**A.** did not modulate

**Q.** What about the “basal synaptic transmission in the CA1 region” value [5] of the same compound?
**A.** significantly increased

**Q.** What about the “level of [Thr286]-phosphorylated, active CaMKII” value [6] of the same compound?
**A.** significantly increased

**Q.** And the “level of total CaMKII” value [6]?
**A.** without influencing

**Q.** And the LTP [7]?
**A.** did not have any effect

**Q.** What about the basal synaptic transmission [7] of the same compound?
**A.** did not have any effect

**Q.** And the “levels of [Ser133]-phosphorylated, active CREB” value [8]?
**A.** significantly increased

**Q.** With Oc1cc(O)c2c(c1)O[C@H](c1ccc(O)c(O)c1)[C@H](O)C2 [EC, (−)-epicatechin] as the compound, how does the “free C and EC contents in the brain” value [1] read?
**A.** trace contents (below levels for quantification)
